Data published in patent US12005068B2, “Formulation including doxycycline hyclate and method for administering the same” (priority 2017, dated 2024).

What was measured:
Format in all cases: in vivo
[1] = system: chemotherapy induced peripheral neuropathy; assay: Example 1: human subject with chemotherapy induced peripheral neuropathy, Treatment-Induced Neuropathy Assessment Scale and reported symptoms; details: patient history before the disclosed treatment
From the text: A patient complained of a tingling and burning sensation in their hands and feet that began shortly after they commenced chemotherapy. The patient had been previously diagnosed with primary peritoneal cervical cancer. While it was recommended that the patient undergo chemotherapy treatment for 18 weeks, the patient was unable to tolerate the side effects of the treatment after 11 weeks and ceased the treatment sessions. […] The patient experienced the same side effects again and sought help to alleviate their pain.
Upon physical examination by a practicing physician their gait was abnormal. Some of their symptoms included: • (a) The patient had poor coordination. In particular, when the patient would stop looking at their feet, they would lose all sense of proprioception (i.e., their sense of the relative position of the body and strength of effort being employed in movement) was lost. The patient thus used a cane as they had trouble with stability. • (b) The patient's sense of touch was poor. For example, the patient could not distinguish different textures as everything felt like silk to them. • (c) The patient's sense of temperature was also poor. […] • (d) There was an altered temperature sensation. They were hyper sensitized to slight changes in temperature. […] They could not write, hold a phone, pick up change, buckle themself in a seat, or dress themself. In the absence of a stimulus, the patient felt the tingling, burning sensations in their hands and feet. • (e) The patient's sensations would be exacerbated upon the introduction of a non-noxious stimulus.
Based on the above, the patient was diagnosed with chemotherapy induced peripheral neuropathy. […] Some of the attempted medications were PERCOSET, GABAPENTIN, TYLENOL, ADVIL, LIDOCAINE, and CAPSAICIN. Numerous other over-the-counter medications were tried. Other attempted treatments included acupuncture.
In an embodiment of the presently disclosed treatment, a formulation of topical doxycycline hyclate suspension at a concentration of 400 mg/g. The prescribed administration included applying the formulation to the patient's hands and feet 2-3 times daily as needed for the pain. Each dose was 2 ml per foot, per hand, and per leg. Over the course of at least 18 months, the patient used the formulation every day during the remainder of the patient's second regiment of chemotherapy. […] In particular, immediately after applying the topical doxycycline for the very first time, the patient found relief in the tingling, burning feeling in the hands and feet. […] They were able to pick up change.
Quantitatively, data was collected for at least 7 months on a “Treatment-Induced Neuropathy Assessment Scale” as shown in Table 1 below. The scale was proven in the scientific literature to be an effective tool to quantify change in symptoms presented by patients with peripheral neuropathy. The patient needed to assess their pain from a scale of 0 (non-existent) to 10 (unbearable pain). Throughout all the categories, the patient's pain went down. In some categories the pain was diminished altogether.

multiple sclerosis = assay: Example 5: human subject with multiple sclerosis, leg pain triggered by AVONEX injection; details: patient history
From the text: The following in vivo study of a human subject diagnosed with multiple sclerosis.
A patient presented with excruciating pain in their quadriceps that extended down to their calves. The pain was triggered by the weekly injection of AVONEX (interferon beta-1a) the patient was taking in order to manage their multiple sclerosis. They could not sleep due to the pain.
The patient then began a new treatment course to alleviate the pain. This treatment is a novel formulation of topical doxycycline hyclate suspension at a concentration of 400 mg/g. Each dose was 4 ml per leg and 2 ml per arm/hands. They applied it to the affected areas when they were feeling the pain. They also applied it at work when they would get pains from handling complex machines such as nail guns.

osteoarthritis = assay: Example 6: human subject with osteoarthritis in both knees; details: patient history; side effects put them in a worse state
Description: The following in vivo study of a human subject diagnosed with osteoarthritis.
A patient presented with osteoarthritis in both knees due to a previous trauma years ago in their life. Their knees are in a constant state of pain and inflammation. They also have arthritis in the toe joints and shoulder.
The patient then began a new treatment course to alleviate the pain. This treatment is a novel formulation of topical doxycycline hyclate suspension at a concentration of 400 mg/g. Each dose was 2 ml per knee. They applied it to the affected areas when they were feeling the pain. By the next day the patient feels minimal pain. They apply 1.5 ml of the topical doxycycline suspension daily for a week at night. […] undergoes this treatment once every 4-6 months.

idiopathic neuropathy = assay: Example 7: human subject with idiopathic neuropathy; details: patient statement
Description: The following in vivo study of a human subject diagnosed with idiopathic neuropathy.
A patient presented with idiopathic ice-cold burning sensations on the lateral surface area of the right shin/calf. The pain began 6 years ago and has stayed constant.
The patient then began a new treatment course to alleviate the pain. This treatment is the presently disclosed novel formulation of topical doxycycline hyclate suspension at a concentration of 400 mg/g. Each dose was 4m1 to the affected right shin. They applied it topically to the affected areas when they were feeling the pain. They began applying it only once a day for 2 weeks before bed.

[2] = system: osteoarthritis of the left knee; assay: Example 2: human subject with osteoarthritis of the left knee; details: patient history; once relieved pain for 3 months
From the text: The following in vivo study of a human subject diagnosed with osteoarthritis of the left knee.
A patient presented with complaints of left knee pain. The patient had been previously diagnosed with progressive osteoarthritis of the left knee. They had undergone two knee surgeries, but the pain came back within a few months. […] Their specialist said that the they were too young and too overweight for a full knee replacement surgery so they must rely on narcotic pain medications and hydrocortisone shots until they are a good candidate for the replacement surgery.
The patient then began the currently disclosed treatment course to alleviate the pain from their osteoarthritis. As already discussed, the currently disclosed treatment is a topical doxycycline hyclate suspension at a concentration of 400 mg/g. They applied it to the knee twice a day. Each dose was approximately 4 ml per knee spread topically over the knee. Preferably, an application covers the affected area with a thin layer of the suspension. One application was before bedtime and the other was in the morning before going to work. The patient has been using it every day for the past month.

CCN(CC)CC(=O)Nc1c(C)cccc1C [LIDOCAINE]
effect of previously attempted medications on the patient's symptoms [1]: failed to address the patient's symptoms

NCC1(CC(=O)O)CCCCC1 [GABAPENTIN]
effect of previously attempted medications on the patient's symptoms [1]: failed to address the patient's symptoms

CC(C)Cc1ccc(C(C)C(=O)O)cc1 (stereo not shown) [MOTRIN, ibuprogen]
effect of previously taken medications on pain (multiple sclerosis): not as effective as they hoped

CC(=O)Nc1ccc(O)cc1 [TYLENOL, acetaminophen]
effect of previously attempted medications on the patient's symptoms [1]: failed to address the patient's symptoms | effect of previously taken medications on pain (multiple sclerosis): not as effective as they hoped | effect of previously tried medications on pain (osteoarthritis): did not help manage the pain

CC(C)Cc1ccc(C(C)C(=O)O)cc1 (stereo not shown) [Ibuprofen]
effect of previous medications on pain (idiopathic neuropathy): did not help

COc1cc(CNC(=O)CCCC/C=C/C(C)C)ccc1O [CAPSAICIN]
effect of previously attempted medications on the patient's symptoms [1]: failed to address the patient's symptoms

C[C@]12CCC(=O)C=C1CC[C@@H]1[C@@H]2[C@@H](O)C[C@@]2(C)[C@H]1CC[C@]2(O)C(=O)CO [hydrocortisone]
duration of pain relief after shots [2]: 3 weeks

CC(C)Cc1ccc(C(C)C(=O)O)cc1 (stereo not shown) [ADVIL, ibuprofen]
effect of previously attempted medications on the patient's symptoms [1]: failed to address the patient's symptoms
